Results on eight compounds are retold here after PubChem BioAssay (NCI).

Several values for one entry are separate records, joined by “and”; a condition that tells them apart may be missing. Identical values can stand only once.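 96-well plates; 48 h exposure; 5 concentrations. Endpoints by linear interpolation between flanking doses. Not reached: highest tested concentration assigned. GI50: concentration for 50% inhibition of growth. TGI is the concentration that stops growth completely.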

Common to all, as to test: NCI-60 cell line screen, 48 h
In assay [1] the test system is UACC-62 melanoma.
The test system of assay [2] is KM12 colon.
Assay [3] deals with T-47D breast.
Assay [4] concerns BT-549 breast.
For assay [5], the system named is HOP-92 NSCLC.
The subject of assay [6] is SNB-19 CNS.
Assay [7] deals with 786-0 renal.
Assay [8] deals with M14 melanoma.
In assay [9] the test system is SK-MEL-2 melanoma.
For assay [10], the system named is PC-3 prostate.

On to `COC(=O)Nc1nc2ccc(Oc3ccc(NC(=O)Nc4cccc(Cl)c4)cc3)cc2[nH]1`, for which the GI50 in [1] was 0.712 µM; in assay [2], 0.147 µM; in assay [3], 1.02 µM; in assay [4], 5.87 µM; in [5], 0.853 µM; in assay [6] it was 2.61 µM. Besides, the GI50 in assay [7] is 1.87 µM; in [8], 1.25 µM; in assay [9], 1.07 µM; in assay [10], 1 µM. Also, the TGI in assay [1] is 4.78 µM; in assay [2], 3.8 µM; in assay [3], 5.65 µM; in assay [4], more than 21.8 µM; in assay [5] it was 5.47 µM; in [6], more than 25 µM. Further, the TGI is 8.28 µM in assay [7], more than 11.8 µM in [8], 8.06 µM in [9] and 7.1 µM in assay [10].

For the compound `CC/C(=C(\CC)c1ccc(OCCN(CC)CC)cc1)c1ccc(OCCN(CC)CC)cc1`, the GI50 was 1.92 µM in assay [1]; 2.01 µM in assay [2]; 2.65 µM in assay [3]; 4.55 µM in [4]; 0.879 µM in assay [5]; 3.26 µM in assay [6]. In addition, the GI50 was 1.6 µM in assay [7], 0.771 µM in assay [8], 1.9 µM in assay [9] and 3.25 µM in assay [10]. Further, the TGI was found to be 4.29 µM in assay [1]; 12.6 µM in assay [2]; 6.73 µM in assay [3]; 13.9 µM in assay [4]; 4.72 µM in [5]; 10.6 µM in assay [6]. Also, the TGI in [7] turned out to be 3.66 µM; in assay [8], 2.27 µM; in assay [9] it was 7.58 µM; in [10], 19.5 µM.

In the case of `ON(CCc1ccccn1)Cc1ccccc1`, the TGI in assay [1], in [2], in [3], in assay [4], in [5] and in [6] was more than 100 µM each time. The TGI in assay [7], in assay [8], in assay [9] and in [10] was more than 100 µM in each case.

Regarding `CCOC(=O)c1cc2ncccc2c2ccccc12`, the TGI in [1], in assay [2], in [3], in [4], in [5] and in assay [6] was more than 100 µM each time. For the same compound, the TGI in assay [7], in assay [8], in assay [9] and in [10] was more than 100 µM throughout.

Turning to `CCCC(=O)NNc1[nH]c(-c2ccc(OC)cc2)cc1C(=O)OCC`, the GI50 was 16.4 µM in assay [1]; 37.7 µM in assay [2]; 15.3 µM in assay [3]; 15.7 µM in assay [4]; 18.6 µM in assay [5]; 54.3 µM in assay [6]. Besides, the GI50 in assay [7] is 20.1 µM; in assay [8], 20.4 µM; in assay [9] it was 4.59 µM; in assay [10], 19.4 µM. Besides, the TGI in assay [1] was 30 µM; in assay [2], more than 100 µM; in assay [3] it was 48.6 µM; in assay [4], 31 µM; in assay [5], 35.5 µM; in assay [6] it was more than 100 µM. The TGI in assay [7] came out at 34.9 µM; in [8] it was 39.7 µM; in assay [9] it was 8.48 µM; in assay [10], 41.4 µM.

On to `O=C(O)CCC1CCC(c2cc(F)ccc2F)(S(=O)(=O)c2ccc(Cl)cc2)CC1` (centres undefined), for which the GI50 in [1] is 28.2 µM and 97.1 µM; in [2], 34.3 µM and 85.5 µM; in assay [3], 28.6 µM and > 100 µM; in assay [4] it was 10.9 µM and 97.8 µM; in assay [6], 55.1 µM and > 100 µM; in assay [7] it was 23.8 µM and > 100 µM. Further, the GI50 is 15.9 µM and > 100 µM in assay [8]; 20.1 µM and > 100 µM in [9]; 75.8 µM and > 100 µM in assay [10]. Also, the TGI was more than 100 µM in assay [1]; more than 100 µM in [2]; more than 100 µM in [3]; 43.1 µM and > 100 µM in assay [4]; 95.1 µM and > 100 µM in [5]; more than 100 µM in [6]. The TGI in assay [7] is more than 100 µM; in assay [8] it was 52.5 µM and > 100 µM; in [9], 69.7 µM and > 100 µM; in assay [10], more than 100 µM.

In the case of `Cn1cc(C2=C(c3c4n(c5ccccc35)CCC(CN)CC4)C(=O)NC2=O)c2ccccc21` (centres undefined), the GI50 in assay [1] was 3.65 µM; in assay [2] it was 3.88 µM; in [3] it was 4.52 µM; in assay [4], 4.7 µM; in assay [5], 2.92 µM; in [6] it was 4.52 µM. Besides, the GI50 in assay [7] is 4.58 µM; in assay [8], 4.29 µM; in assay [9], 4.02 µM; in assay [10] it was 3.39 µM. Further, the TGI worked out at 7.28 µM in assay [1]; 7.39 µM in assay [2]; 9.87 µM in assay [3]; 8.62 µM in assay [4]; 7.69 µM in assay [5]; 10.7 µM in assay [6]. Further, the TGI in assay [7] came to 8.55 µM; in assay [8], 8.26 µM; in assay [9] it was 8.25 µM; in assay [10], 7.95 µM.

Turning to `O=C(Nc1ccc(Br)c(Cl)c1)c1cc(F)ccc1O`, the GI50 in [1] was 0.242 µM; in assay [2], 1.36 µM; in assay [3] it was 0.638 µM; in assay [4], 0.525 µM; in assay [5], 0.121 µM; in assay [6] it was 0.729 µM. Besides, the GI50 in assay [7] was 1.06 µM; in [8], 0.585 µM; in [9], 0.558 µM; in [10], 1.25 µM. In addition, the TGI was 2.09 µM in assay [1]; 5.23 µM in assay [2]; 13.4 µM in assay [3]; 2.7 µM in assay [4]; 0.755 µM in [5]; more than 50 µM in assay [6]. Moreover, the TGI in assay [7] was 5.73 µM; in assay [8], 3.1 µM; in [9], 2.08 µM; in assay [10] it was more than 14.8 µM.
